Measurements from ChEMBL document CHEMBL1134239, “Synthesis and antitumor activity of novel paclitaxel-chlorambucil hybrids” (Bioorg Med Chem Lett, 2001).

Tests used:
[1] = molecular target: Tubulin alpha chain (Sus scrofa) (UniProt P02550); experiment: Compound was tested in vitro for inhibition of tubulin polymerization, expressed as ratio to that obtained for paclitaxel; format: functional
HCT-116 = experiment: Compound was tested for cytotoxicity against human colon tumor cell line (HCT116); format: functional, cell-based
M109 = experiment: Compound was tested in vivo against M109 using Madison murine lung carcinoma (M109) tumor model; format: functional, Mus musculus

Tubulin alpha chain (Sus scrofa), sequence (P02550 whole entry, looked up): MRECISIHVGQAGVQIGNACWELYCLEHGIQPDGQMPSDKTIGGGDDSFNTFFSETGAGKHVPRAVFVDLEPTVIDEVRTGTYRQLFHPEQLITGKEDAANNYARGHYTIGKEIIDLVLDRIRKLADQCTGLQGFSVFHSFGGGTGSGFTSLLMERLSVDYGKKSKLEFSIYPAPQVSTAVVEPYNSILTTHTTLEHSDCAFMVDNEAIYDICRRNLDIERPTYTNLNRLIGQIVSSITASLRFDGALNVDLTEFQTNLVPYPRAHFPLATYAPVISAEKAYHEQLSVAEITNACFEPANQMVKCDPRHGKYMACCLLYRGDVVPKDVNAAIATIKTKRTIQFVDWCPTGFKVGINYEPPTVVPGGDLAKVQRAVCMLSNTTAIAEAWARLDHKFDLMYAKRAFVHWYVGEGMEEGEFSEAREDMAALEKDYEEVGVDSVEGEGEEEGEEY

SMILES	Tubulin polymerization [1]	IC50 (HCT-116) [nM]	T/C (M109) [%]
CC(=O)O[C@H]1C(=O)[C@@]2(C)C([C@H](OC(=O)c3ccccc3)[C@]3(O)C[C@H](OC(=O)[C@H](O)[C@@H](NC(=O)c4ccccc4)c4ccccc4)C(C)=C1C3(C)C)[C@]1(OC(C)=O)CO[C@@H]1C[C@@H]2OCOC(=O)N(CCOC(=O)CCCc1ccc(N(CCCl)CCCl)cc1)CCOC(=O)CCCc1ccc(N(CCCl)CCCl)cc1 (some centres undefined)	70	24	224
CC(=O)OCCN(CCOC(C)=O)C(=O)OCO[C@H]1C[C@H]2OC[C@@]2(OC(C)=O)C2[C@H](OC(=O)c3ccccc3)[C@]3(O)C[C@H](OC(=O)[C@H](O)[C@@H](NC(=O)c4ccccc4)c4ccccc4)C(C)=C([C@@H](OC(C)=O)C(=O)[C@@]21C)C3(C)C (some centres undefined)	6.5	3.9	17
CC(=O)O[C@H]1C(=O)[C@@]2(C)C([C@H](OC(=O)c3ccccc3)[C@]3(O)C[C@H](OC(=O)[C@H](O)[C@@H](NC(=O)c4ccccc4)c4ccccc4)C(C)=C1C3(C)C)[C@]1(OC(C)=O)CO[C@@H]1C[C@@H]2OC(=O)CCCc1ccc(N(CCCl)CCCl)cc1 (some centres undefined)	53	161	127
CC(=O)O[C@H]1C(=O)[C@@]2(C)[C@H]([C@H](OC(=O)c3ccccc3)[C@]3(O)C[C@H](OC(=O)[C@H](O)[C@@H](NC(=O)c4ccccc4)c4ccccc4)C(C)=C1C3(C)C)[C@]1(OC(C)=O)CO[C@@H]1C[C@@H]2O [PACLITAXEL]	1	–	246
CC(=O)O[C@H]1C(=O)[C@@]2(C)C([C@H](OC(=O)c3ccccc3)[C@]3(O)C[C@H](OC(=O)[C@H](O)[C@@H](NC(=O)c4ccccc4)c4ccccc4)C(C)=C1C3(C)C)[C@]1(OC(C)=O)CO[C@@H]1C[C@@H]2OCOC(=O)CCCc1ccc(N(CCCl)CCCl)cc1 (some centres undefined)	62	4.6	155
